Assay results taken from US20230247992A1, “ARTHROPOD CONTROL COMPOSITION” (Firmenich SA, priority 2020, published 2023).
Like-named read-outs stand apart in the source and are kept apart here.

Experiments:
Assay type in all cases: in vivo
[1] = test system: Aedes aegypti; assay: in vitro Warm Body assay, substance introduced in the cage air by forced evaporation (spatial repellence)
Description: (§1) The controlling effect, repellence & spatial repellence, according to the present invention is determined by testing the Warm Body assay against the yellow fever mosquito, Aedes aegypti Rockefeller strain. […] Observations of controlling efficacy were made on host-seeking females of uniform age, 5 to 10 days old selected as mentioned in the publication mentioned hereinabove. Tested hungry females had access to 10% sugar solution but were not blood-fed. Further information is provided in the accompanying examples.
(§2) The published protocol has been adapted in not manually counting the landing mosquitoes but automatically using an automatic counting software, the switch from Anopheles gambiae to A. aegypti led to a decrease of mosquitoes’ number placed in the tested cage due to the size difference (i.e. 30 mosquitoes instead of 50) and to an increase of lighting as A. aegypti is a diurnal mosquitoes (i.e. 150 lux instead of 4 lux). Further information is provided in the accompanying examples.,
(§3) The controlling effect of the compositions according to the present invention was assessed using an adapted Warm Body assay as defined in Kröber T, Kessler S, Frei J, Bourquin M, Guerin PM. 2010. An in vitro assay for testing mosquito controlling compounds employing a warm body and carbon dioxide as a behavioral activator. J Am Mosq Control Assoc. 26:381-386. In this in-vitro assay the number of mosquito landing on a warm body, simulating an attractive host treated with the tested stimuli, was measured in order to assess the repellence effect.
as §2, with “to Aedes” for “to A.”, “lux).” for “lux). Further information is provided in the accompanying examples.,”
(§4) In addition, since the inventors were interested by assessing spatial repellence added or not to a deterrent effect, the substance was applied using two different technics. Whether, as in Kröber et al. (2010), both deterrent and repellent effect were investigated (i.e. similar effect than most body care applications such as lotion) and the substances was applied on a sandblasted glass Petri dish placed on top of the warm body. Whether only the spatial repellence was investigated (i.e. similar effect than most home care applications such as liquid electric dispenser) and the substance was introduced in the cage space thanks to a forced evaporation system as described in Chappuis C J-F, Niclass Y, Vuilleumier C, Starkenmann C. 2015. Quantitative Headspace Analysis of Selected Odorants from Latrines in Africa and India. Environ. Sci. Technol. 49:6134-6140.
(§5) As stated in Kröber et al. (2010), selected 10-12 days old hungry females, that had ad libitum access to 10% sugar solution but were not blood-fed, were selected for the assay.
The forced evaporation system allows to fill the volume of the cage with stimuli tested, (2-methyl-4-oxo-3-prop-2-ynylcyclopent-2-en-1-yl) 2,2-dimethyl-3-(2-methylprop-1-enyl)cyclopropane-1-carboxylate (prallethrin) and N,N-diethyl-3-methylbenzamide (DEET) being used as benchmarks. In order to limit potential dead volumes in the cage, five flushes of the cage were made before starting the 2 minutes test during which the number of mosquito landings was counted.

[2] = test system: Ixodes ricinus; assay: whole plant or invertebrate; conditions: for pest or weed control at 1 µg/cm2, 1 µg/cm2 / pest or weed control at 5 µg/cm2, 5 µg/cm2 / pest or weed control at 25 µg/cm2, 25 µg/cm2 / pest or weed control at 0.04 µg/cm2, 0.04 µg/cm2: Ixodes ricinus, read-out: mean percentage of ticks affected; for pest or weed control at 0.04 µg/cm2, 0.04 µg/cm2: 0.04 µg/cm^2, diluted in ethanol; for tick response compared with the benchmark IR3535: concentrations tested
[3] = test system: Aedes aegypti; assay: in vitro Warm Body assay, substance applied on glass Petri dish on top of the warm body (deterrence and repellence)
Description: as §1, §2, §3
as §2, with “to Aedes” for “to A.”, “lux).” for “lux). Further information is provided in the accompanying examples.,”
as §4, §5
On the sandblasted glass Petri dish covering the warm body (28.3 cm^2), 100 µL of the substances diluted at different concentrations in ethanol was applied. The number of mosquito landing on the warm body was counted for each stimuli, N,N-diethyl-3-methylbenzamide (DEET) and ethyl 3-[acetyl(butyl)amino]propanoate (IR3535) being used as benchmarks and pure ethanol as control.

[4] = 0.04% in ethanol, ethanol control 67.0±8.8 landings
[5] = 1% in ethanol, ethanol control 67.0±8.8 landings
[6] = […] in ethanol, ethanol control 67.0±8.8 landings
[7] = 0.0017 µg/L air, without substance 54.7±3.2
[8] = 0.017 µg/L air, without substance 54.7±3.2
[9] = 0.17 µg/L air, without substance 54.7±3.2
[10] = 1.7 µg/L air, without substance 54.7±3.2
[11] = 17 µg/L air, without substance 54.7±3.2
[12] = 1 µg/cm^2, diluted in ethanol, ethanol control 1.0±1.2%
[13] = 5 µg/cm^2, diluted in ethanol, ethanol control 1.0±1.2%
[14] = 25 µg/cm^2, diluted in ethanol, ethanol control 1.0±1.2%
[15] = 0.04% in ethanol, ethanol control 59.3±6.9 landings
[16] = 1% in ethanol, ethanol control 59.3±6.9 landings
[17] = […] in ethanol, ethanol control 59.3±6.9 landings
[18] = 1 µg/cm^2, diluted in ethanol, ethanol control 0.6±0.5%
[19] = 25 µg/cm^2, diluted in ethanol, ethanol control 0.6±0.5%
[20] = 0.0017 µg/L air, without substance 56.0±3.6
[21] = 0.017 µg/L air, without substance 56.0±3.6
[22] = 0.17 µg/L air, without substance 56.0±3.6
[23] = 1.7 µg/L air, without substance 56.0±3.6
[24] = 17 µg/L air, without substance 56.0±3.6
[25] = 0.04% in ethanol, ethanol control 67.1±9.1 landings
[26] = 1% in ethanol, ethanol control 67.1±9.1 landings
[27] = […] in ethanol, ethanol control 67.1±9.1 landings

| SMILES | pest or weed control at 1 µg/cm2, 1 µg/cm2 [2] | pest or weed control at 5 µg/cm2, 5 µg/cm2 [2] | pest or weed control at 25 µg/cm2, 25 µg/cm2 [2] | number of mosquitoes landing within 2 minutes on the warm body [3, 4] | number of mosquitoes landing within 2 minutes on the warm body [3, 5] | number of mosquitoes landing within 2 minutes on the warm body [3, 6] | number of mosquitoes landing within 2 minutes on the warm body, air in the cage saturated with stimulus [1, 7] | number of mosquitoes landing within 2 minutes on the warm body, air in the cage saturated with stimulus [1, 8] | number of mosquitoes landing within 2 minutes on the warm body, air in the cage saturated with stimulus [1, 9] | number of mosquitoes landing within 2 minutes on the warm body, air in the cage saturated with stimulus [1, 10] | number of mosquitoes landing within 2 minutes on the warm body, air in the cage saturated with stimulus [1, 11] | pest or weed control at 1 µg/cm2, 1 µg/cm2 [2, 12] | pest or weed control at 5 µg/cm2, 5 µg/cm2 [2, 13] | pest or weed control at 25 µg/cm2, 25 µg/cm2 [2, 14] | number of mosquitoes landing within 2 minutes on the warm body [3, 15] | number of mosquitoes landing within 2 minutes on the warm body [3, 16] | number of mosquitoes landing within 2 minutes on the warm body [3, 17] | number of mosquitoes landing within 2 minutes on the warm body [3, 25] | number of mosquitoes landing within 2 minutes on the warm body [3, 26] | number of mosquitoes landing within 2 minutes on the warm body [3, 27] | also measured |
| --- | --- | --- | --- | --- | --- | --- | --- | --- | --- | --- | --- | --- | --- | --- | --- | --- | --- | --- | --- | --- | --- |
| C/C=C/c1ccc(O)c(OC)c1 [2-methoxy-4-[(E)-prop-1-enyl]phenol] | 8% | 67% | 83% | 14.0 | 0.0 | 57.0 |  |  |  |  |  |  |  |  |  |  |  |  |  |  | number of mosquitoes landing within 2 minutes on the warm body, air in the cage saturated with stimulus ([1]; 0.017 µg/L air, without substance 54.1±4.9): 12.0; number of mosquitoes landing within 2 minutes on the warm body, air in the cage saturated with stimulus ([1]; 0.17 µg/L air, without substance 54.1±4.9): 4.0; number of mosquitoes landing within 2 minutes on the warm body, air in the cage saturated with stimulus ([1]; 1.7 µg/L air, without substance 54.1±4.9): 11.0; landings per minute ([3]; concentration of 0.04%): ~ 10 landings per minute |
| CC(C=O)Cc1ccc(C(C)C)cc1 (centres unmarked) [2-methyl-3-(4-propan-2-ylphenyl)propanal] |  |  |  |  |  |  | 26.3 | 21.3 | 7.8 | 5.0 | 7.5 | 7% | 46% | 85% | 20.0 | 1.0 | 49.0 |  |  |  |  |
| O=C1CCC2CCCCC2O1 (centres unmarked) [3,4,4a,5,6,7,8,8a-octahydrochromen-2-one] |  |  |  | 7.0 | 0.0 | 45.0 |  |  |  |  |  |  |  |  |  |  |  |  |  |  | pest or weed control at 0.04 µg/cm2, 0.04 µg/cm2 ([2]; ethanol control 0.6±0.5%): 33%; pest or weed control at 1 µg/cm2, 1 µg/cm2 [2, 18]: 17%; pest or weed control at 25 µg/cm2, 25 µg/cm2 [2, 19]: 92% |
| C=Cc1ccc(O)c(OC)c1 [4-ethenyl-2-methoxyphenol] | 17% | 46% | 100% |  |  |  |  |  |  |  |  |  |  |  |  |  |  | 5.0 | 0.0 | 36.0 | number of mosquitoes landing within 2 minutes on the warm body, air in the cage saturated with stimulus [1, 20]: 11.0; number of mosquitoes landing within 2 minutes on the warm body, air in the cage saturated with stimulus [1, 21]: 15.0; number of mosquitoes landing within 2 minutes on the warm body, air in the cage saturated with stimulus [1, 22]: 0.0; number of mosquitoes landing within 2 minutes on the warm body, air in the cage saturated with stimulus [1, 23]: 3.0; number of mosquitoes landing within 2 minutes on the warm body, air in the cage saturated with stimulus [1, 24]: 2.0; landings in 2 minutes ([1]; dose of 0.17 µg/L of air): less than five; ticks prevented from climbing up in search of a feeding site ([2]; highest concentration of 1% (25 µg/cm^2)): all tested ticks |
| CCCCCC1CCC(=O)O1 (centres unmarked) [5-pentyloxolan-2-one] |  |  |  |  |  |  | 14.7 | 23.0 | 15.3 | 7.7 | 2.0 | 31% | 83% | 100% | 16.0 | 1.0 | 76.0 |  |  |  | tick response compared with the benchmark IR3535 [2]: response similar to the benchmark IR3535 |
| CC(C)=CCC/C(C)=C/C=O [(2E)-3,7-dimethylocta-2,6-dienal] | 15% | 0% | 58% |  |  |  | 25.3 | 15.7 | 15.3 | 14.7 | 23.0 |  |  |  | 16.0 | 2.0 | 89.0 |  |  |  | decrease of landings ([1]; identical at all concentrations tested): ~ 67% |
| CCC/C=C1\OC(=O)c2ccccc21 [(3Z)-3-butylidene-2-benzofuran-1-one] | 77% | 100% | 100% |  |  |  |  |  |  |  |  |  |  |  |  |  |  | 9.0 | 1.0 | 54.0 | number of mosquitoes landing within 2 minutes on the warm body, air in the cage saturated with stimulus [1, 20]: 59.0; number of mosquitoes landing within 2 minutes on the warm body, air in the cage saturated with stimulus [1, 21]: 31.5; number of mosquitoes landing within 2 minutes on the warm body, air in the cage saturated with stimulus [1, 22]: 17.0; number of mosquitoes landing within 2 minutes on the warm body, air in the cage saturated with stimulus [1, 23]: 11.0; number of mosquitoes landing within 2 minutes on the warm body, air in the cage saturated with stimulus [1, 24]: 37.0; repulsion ([1]; doses of 1.7 and/or 17 µg/L in air): < 90%; tick response compared with the benchmark IR3535 [2]: greater tick repellency; ticks affected ([2]; intermediate dose tested (0.2%)): all tested ticks were affected; fraction of the ticks affected ([2]; lowest dose tested (0.04%)): more than ¾ |
| CCCCN(CCC(=O)OCC)C(C)=O [ethyl 3-[acetyl(butyl)amino]propanoate, reference compound] |  |  |  | 20.7 | 7.7 | 70.0 |  |  |  |  |  | 33% | 67% | 91% | 20.7 | 7.7 | 70.0 | 20.7 | 7.7 | 70.0 | mean percentage of ticks affected [2, 18]: 33%; mean percentage of ticks affected ([2]; 1 µg/cm^2, diluted in ethanol, ethanol control 4.3±2.1%): 33%; mean percentage of ticks affected ([2]; 5 µg/cm^2, diluted in ethanol, ethanol control 0.6±0.5%): 67%; mean percentage of ticks affected ([2]; 5 µg/cm^2, diluted in ethanol, ethanol control 4.3±2.1%): 67%; mean percentage of ticks affected [2, 19]: 91%; mean percentage of ticks affected ([2]; 25 µg/cm^2, diluted in ethanol, ethanol control 4.3±2.1%): 91%; pest or weed control at 0.04 µg/cm2, 0.04 µg/cm2 ([2]; ethanol control 0.6±0.5%): 13% |
